Test results as given in article PMC7845594, “Novel Immune Modulators Enhance Caenorhabditis elegans Resistance to Multiple Pathogens” (mSphere, 2021).

Tested on: C. elegans transcriptome
Experiment: Transcriptome profiling (Affymetrix microarrays), differentially expressed genes
Assay type: in vivo, Caenorhabditis elegans
Details: downregulated genes
Description: To gain additional insight into the effect of LK molecules on C. elegans, young-adult, wild-type worms were treated with each drug at 100 µM for 8 h in the absence of pathogen. RNA was collected, and transcriptome profiling was performed.
Data were determined using Affymetrix microarrays, as described in Materials and Methods. Download Table S3, XLSX file, 0.07 MB.
Transcriptome profiling was performed on ∼6,000 wild-type, young adult worms incubated with either LK molecules or DMSO for 8 h. RNA isolation was performed using TRIzol extraction, followed by cleanup using RNeasy columns according to the manufacturer’s protocol. Each condition was analyzed in triplicate. Microarray data have been deposited in the GEO database, accession number GSE137516. […] Clustering and generation of the heat map was performed using Cluster 3.0 ([98]) and Treeview ([99]), respectively. Fold change of genes were normalized to average fold change of that gene over all clustered conditions. Genes and conditions were clustered using Euclidean distance and average linkages. […] Microarray data for non-LK molecules were collected from GEO omnibus. WormEXP was used as a secondary method for confirming statistical significance of potential pathways stimulated by each of the LK molecules ([100]). Gene ontologies were generated using DAVID ([101], [102]).

CCN(CC)/N=N/c1ccc(C(=O)O)cc1 [LK35]
Fold Change (Gene C29F4.2, Affy_ID 190884_at): 0.3931 | Fold Change (Gene C32E8.7, Affy_ID 188220_at): 0.2903 | Fold Change (Gene C33F10.9, Affy_ID 172834_x_at): 0.1897 | Fold Change (Gene C34F11.3, Affy_ID 189114_at): 0.4428 | Fold Change (Gene C34F11.4, Affy_ID 172885_x_at): 0.1632 | Fold Change (Gene C34F11.6, Affy_ID 172896_x_at): 0.1976 | Fold Change (Gene C35A5.6, Affy_ID 179396_at): 0.1353 | Fold Change (Gene C35D10.11, Affy_ID 172630_x_at): 0.1209 | Fold Change (Gene C44C8.6, Affy_ID 189233_s_at): 0.3734 | Fold Change (Gene C49F5.1, Affy_ID 174812_at): 0.237 | Fold Change (Gene C50F7.5, Affy_ID 183381_at): 0.3778 | Fold Change (Gene CTEL54X.1, Affy_ID 185910_at): 0.2757 | Fold Change (Gene D1086.2, Affy_ID 177478_at): 0.1132 | Fold Change (Gene D1086.5, Affy_ID 177666_at): 0.2318 | Fold Change (Gene D2024.7, Affy_ID 187178_s_at): 0.4973 | Fold Change (Gene D2045.8, Affy_ID 191879_at): 0.4257 | Fold Change (Gene D2089.3, Affy_ID 178891_at): 0.3977 | Fold Change (Gene F02D8.4, Affy_ID 189325_at): 0.3853 | Fold Change (Gene F07A11.5, Affy_ID 188623_at): 0.4237 | Fold Change (Gene F08B6.4, Affy_ID 171924_x_at): 0.4112 | Fold Change (Gene F08G2.1, Affy_ID 192280_s_at): 0.181 | Fold Change (Gene F53A9.8, Affy_ID 180612_s_at): 0.2385 | Fold Change (Gene F53F4.13, Affy_ID 182491_at): 0.306 | Fold Change (Gene F54F11.2, Affy_ID 191753_at): 0.2877 | Fold Change (Gene F55F3.2, Affy_ID 189534_at): 0.2425 | Fold Change (Gene F55G1.3, Affy_ID 172702_x_at): 0.3727 | Fold Change (Gene F58A4.7, Affy_ID 171841_x_at): 0.2717 | Fold Change (Gene F58A6.8, Affy_ID 172889_x_at): 0.1742 | Fold Change (Gene F58A6.9, Affy_ID 172743_x_at): 0.2732 | Fold Change (Gene F58B3.1, Affy_ID 178236_s_at): 0.3338 | Fold Change (Gene F58G1.4, Affy_ID 177978_at): 0.2272 | Fold Change (Gene F59B2.5, Affy_ID 187071_at): 0.4863 | Fold Change (Gene H02I12.6, Affy_ID 172891_x_at): 0.4113 | Fold Change (Gene H12C20.3, Affy_ID 192782_at): 0.1769 | Fold Change (Gene H12D21.1, Affy_ID 172431_x_at): 0.176 | Fold Change (Gene H36L18.2, Affy_ID 179787_at): 0.4486 | Fold Change (Gene K02C4.2, Affy_ID 178299_at): 0.2893 | Fold Change (Gene K02D7.1, Affy_ID 189003_s_at): 0.4157 | Fold Change (Gene K03H1.10, Affy_ID 179875_at): 0.3898 | Fold Change (Gene K03H6.2, Affy_ID 183309_at): 0.3456 | Fold Change (Gene K05F1.2, Affy_ID 172815_x_at): 0.2488 | Fold Change (Gene K05F1.7, Affy_ID 172904_x_at): 0.1812 | Fold Change (Gene K06C4.12, Affy_ID 172685_x_at): 0.3916 | Fold Change (Gene K07E8.3, Affy_ID 180256_at): 0.04574 | Fold Change (Gene K07F5.2, Affy_ID 172852_x_at): 0.1696 | Fold Change (Gene K07F5.3, Affy_ID 172907_x_at): 0.1824 | Fold Change (Gene K07F5.5, Affy_ID 172245_x_at): 0.3189 | Fold Change (Gene K08F4.8, Affy_ID 172934_x_at): 0.1666 | Fold Change (Gene K08F8.4, Affy_ID 193649_s_at): 0.4028 | Fold Change (Gene K10F12.4, Affy_ID 185815_at): 0.3079 | Fold Change (Gene M01D7.5, Affy_ID 173242_s_at): 0.2324 | Fold Change (Gene M05D6.7, Affy_ID 193914_at): 0.3025 | Fold Change (Gene M6.1, Affy_ID 193073_at): 0.2608 | Fold Change (Gene M18.1, Affy_ID 173632_s_at): 0.1786 | Fold Change (Gene M163.1, Affy_ID 177298_at): 0.4161 | Fold Change (Gene R01E6.3, Affy_ID 189628_at): 0.3449 | Fold Change (Gene R03E9.1, Affy_ID 193723_s_at): 0.1079 | Fold Change (Gene R04B5.9, Affy_ID 191440_at): 0.2481 | Fold Change (Gene R05F9.3, Affy_ID 172725_x_at): 0.3857 | Fold Change (Gene R05F9.8, Affy_ID 172724_x_at): 0.1853 | Fold Change (Gene R05G6.10, Affy_ID 192058_at): 0.3689 | Fold Change (Gene R07B1.3, Affy_ID 190822_s_at): 0.3753 | Fold Change (Gene R12C12.1, Affy_ID 190616_at): 0.3455 | Fold Change (Gene R12E2.9, Affy_ID 180698_s_at): 0.2329 | Fold Change (Gene R52.3, Affy_ID 177369_at): 0.433 | Fold Change (Gene T01C3.4, Affy_ID 188106_at): 0.01178 | Fold Change (Gene T01D3.6, Affy_ID 194060_s_at): 0.3484 | Fold Change (Gene T02B11.3, Affy_ID 174051_s_at): 0.4315 | Fold Change (Gene T03D8.2, Affy_ID 190280_at): 0.4443 | Fold Change (Gene T07C4.4, Affy_ID 178149_s_at): 0.4269 | Fold Change (Gene T07G12.5, Affy_ID 188496_s_at): 0.1018 | Fold Change (Gene T08B1.6, Affy_ID 192296_at): 0.1305 | Fold Change (Gene T08B2.12, Affy_ID 184685_s_at): 0.1145 | Fold Change (Gene T09F5.9, Affy_ID 188947_at): 0.2413 | Fold Change (Gene T15B7.9, Affy_ID 182858_at): 0.3683 | Fold Change (Gene T19H5.4, Affy_ID 186755_s_at): 0.3412 | Fold Change (Gene T20B3.2, Affy_ID 188278_s_at): 0.3943 | Fold Change (Gene T20D4.11, Affy_ID 184438_at): 0.05764 | Fold Change (Gene T20G5.7, Affy_ID 172218_x_at): 0.3082 | Fold Change (Gene T22H2.6, Affy_ID 180962_s_at): 0.3753
